Data reported in patent publication US10703764B2, “Benzopiperazine compositions as BET bromodomain inhibitors” (FORMA Therapeutics, Inc., priority 2013, dated 2020).

Columns and labels:
BRD4 BD2 = target: T1, BRD4 BD2 (Homo sapiens, UniProt O60885); assay: AlphaScreen binding assay, BRD4 Bromodomain 2
T1 construct: made in house
In short: (§1)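 Compound dilution series were mixed with His-tagged BRD4 bromodomain and biotinylated tetra-acetylated H4 (1-21) peptide at pH 7.3 (BD1 and peptide at 50 nM, BD2 and peptide at 100 nM). Donor and acceptor beads were then added, and plates were equilibrated at least 1 h before reading. IC50 values were fitted with a four-parameter logistic model.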

BRD4 BD1 = target: T2, BRD4 BD1 (Homo sapiens, UniProt O60885); assay: AlphaScreen binding assay, BRD4 Bromodomain 1
T2 construct: made in house
In short: as §1

MV4-11 cells = assay: Oncology cell growth assay (3-day proliferation, CellTiter-Glo); assay type: cell-based; conditions: Homo sapiens, MV4-11, 72 h, AML cell line MV4-11, 72 hours, compounds grouped by IC50 range, read-out: MV4-11 IC50 (inhibition of proliferation, gIC50)
In short: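 Compounds were serially diluted 3-fold in DMSO, giving final well concentrations from 10 down to 0.0045 μM. MV4-11 cells were then seeded at 3000 cells/well in RPMI 1640 with 10% FBS and incubated 72 hours. CellTiter-Glo signal was measured and gIC50 obtained by four-parameter logistic regression.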

SMILES: CC(=O)N1c2ccc(-c3ccc(N4CCS(=O)(=O)CC4)cc3)cc2N(C(=O)c2ccco2)C[C@@H]1C [Example I-417]
- IC50 (BRD4 BD2): < 50 nM
- IC50 (BRD4 BD1): 100 to 1000 nM
- IC50 (MV4-11 cells): < 100 nM

SMILES: CC(=O)N1c2ccc(-c3ccc(NS(=O)(=O)C4CC4)cc3)cc2N(C(=O)OC(C)C)C[C@@H]1C [Example I-347]
- IC50 (BRD4 BD2): < 50 nM
- IC50 (BRD4 BD1): < 100 nM
- IC50 (MV4-11 cells): < 100 nM

SMILES: CC(=O)N1c2ccc(-c3cnn(C4COC4)c3)cc2N(C(=O)Oc2ccccc2)C[C@@H]1C [Example I-88, (S)-phenyl 4-acetyl-3-methyl-7-(1-(oxetan-3-yl)-1H-pyrazol-4-yl)-3,4-dihydroquinoxaline-1(2H)-carboxylate]
- IC50 (BRD4 BD2): < 50 nM
- IC50 (BRD4 BD1): 100 to 1000 nM
- IC50 (MV4-11 cells): < 100 nM

SMILES: CC(=O)N1c2ccc(-c3ccc(C(=O)N4CCNCC4)cc3)cc2N(C(=O)C2CC2)C[C@@H]1C [Example I-437]
- IC50 (BRD4 BD2): 50 to 500 nM
- IC50 (BRD4 BD1): 100 to 1000 nM
- IC50 (MV4-11 cells): 100 to 500 nM

SMILES: CC(=O)N1c2ccc(-c3ccc(OCCS(C)(=O)=O)cc3)cc2N(C(=O)OC2CCOCC2)C[C@@H]1C [Example I-1252]
- IC50 (BRD4 BD2): 50 to 500 nM
- IC50 (BRD4 BD1): 100 to 1000 nM
- IC50 (MV4-11 cells): 100 to 500 nM

SMILES: COC(=O)N1c2ccc(-c3cnn(CCO)c3)cc2N(C(=O)OC(C)C)C[C@@H]1C [Example I-324]
- IC50 (BRD4 BD2): 50 to 500 nM
- IC50 (BRD4 BD1): 100 to 1000 nM
- IC50 (MV4-11 cells): 100 to 500 nM

SMILES: CC(=O)N1c2ccc(-c3cnn(C4CC4)c3)cc2N(C(=O)Oc2cccc3cccnc23)C[C@@H]1C [Example I-1195]
- IC50 (BRD4 BD2): < 50 nM
- IC50 (BRD4 BD1): 100 to 1000 nM
- IC50 (MV4-11 cells): < 100 nM

SMILES: CC(=O)N1c2ccc(-c3cn(C)nn3)cc2N(C(=O)c2ccco2)C[C@@H]1C [Example I-420]
- IC50 (BRD4 BD2): 50 to 500 nM
- IC50 (BRD4 BD1): 1000 to 10000 nM
- IC50 (MV4-11 cells): > 500 nM

SMILES: CC(=O)N1c2ccc(-c3cccc(C(=O)N4CCOCC4)c3)cc2N(C(=O)c2ccco2)C[C@@H]1C [Example I-838]
- IC50 (BRD4 BD2): < 50 nM
- IC50 (BRD4 BD1): 100 to 1000 nM
- IC50 (MV4-11 cells): 100 to 500 nM

SMILES: CC(=O)N1c2ccc(-c3ccc(S(C)(=O)=O)cc3)cc2N(C(=O)OC2CCCCC2)C[C@@H]1C [Example I-238]
- IC50 (BRD4 BD2): < 50 nM
- IC50 (BRD4 BD1): 100 to 1000 nM
- IC50 (MV4-11 cells): 100 to 500 nM

SMILES: CC(=O)N1c2ccc(-c3cnn(C4CC4)c3)cc2N(C(=O)Oc2ccc3ncccc3c2)C[C@@H]1C [Example I-512]
- IC50 (BRD4 BD2): < 50 nM
- IC50 (BRD4 BD1): < 100 nM
- IC50 (MV4-11 cells): < 100 nM

SMILES: COC(=O)N1c2ccc(-c3cnn(C[C@H]4CCNC4)c3)cc2N(C(=O)OC(C)C)C[C@@H]1C [Example I-692]
- IC50 (BRD4 BD2): 50 to 500 nM
- IC50 (BRD4 BD1): 100 to 1000 nM
- IC50 (MV4-11 cells): > 500 nM

SMILES: CCS(=O)(=O)Nc1ccc(-c2ccc3c(c2)N(C(=O)C2CC2)C[C@H](C)N3C(C)=O)cc1 [Example I-1135]
- IC50 (BRD4 BD2): 50 to 500 nM
- IC50 (BRD4 BD1): 100 to 1000 nM
- IC50 (MV4-11 cells): 100 to 500 nM

SMILES: CC(=O)N1c2ccc(-c3ccc(S(C)(=O)=O)cc3)cc2N(C(=O)c2ccco2)C[C@@H]1C [Example I-817]
- IC50 (BRD4 BD2): < 50 nM
- IC50 (BRD4 BD1): 1000 to 10000 nM
- IC50 (MV4-11 cells): 100 to 500 nM

SMILES: CC(=O)N1c2ccc(-c3ccc(N4CCCS4(=O)=O)cc3)cc2N(C(=O)Oc2ccccn2)C[C@@H]1C [Example I-1324]
- IC50 (BRD4 BD2): < 50 nM
- IC50 (BRD4 BD1): 100 to 1000 nM
- IC50 (MV4-11 cells): 100 to 500 nM

SMILES: CC(=O)N1c2ccc(-c3ccc(NS(C)(=O)=O)c(F)c3)cc2N(C(=O)C2CCC2)C[C@@H]1C [Example I-1181]
- IC50 (BRD4 BD2): 50 to 500 nM
- IC50 (BRD4 BD1): 1000 to 10000 nM
- IC50 (MV4-11 cells): > 500 nM

SMILES: CC(=O)N1c2ccc(-c3cnn(CCO)c3)cc2N(C(=O)OC2CC(F)(F)C2)C[C@@H]1C [Example I-27, (S)-3,3-difluorocyclobutyl 4-acetyl-7-(1-(2-hydroxyethyl)-1H-pyrazol-4-yl)-3-methyl-3,4-dihydroquinoxaline-1(2H)-carboxylate]
- IC50 (BRD4 BD2): 50 to 500 nM
- IC50 (BRD4 BD1): 100 to 1000 nM
- IC50 (MV4-11 cells): 100 to 500 nM

SMILES: CC(=O)N1c2ccc(-c3ccc4c(c3)CS(=O)(=O)N4)cc2N(C(=O)OC(C)C)C[C@@H]1C [Example I-1179]
- IC50 (BRD4 BD2): 50 to 500 nM
- IC50 (BRD4 BD1): 100 to 1000 nM
- IC50 (MV4-11 cells): 100 to 500 nM

SMILES: CC(C)OC(=O)N1C[C@H](C)N(C(=O)C2CC2)c2ccc(-c3cnn(CC4CCS(=O)(=O)CC4)c3)cc21 [Example I-609]
- IC50 (BRD4 BD2): 50 to 500 nM
- IC50 (BRD4 BD1): 100 to 1000 nM
- IC50 (MV4-11 cells): > 500 nM

SMILES: CC(C)OC(=O)N1C[C@H](C)N(C(=O)C2CC2)c2ccc(-c3ccc(C(=O)N4CC[C@H](O)C4)cc3)cc21 [Example I-574]
- IC50 (BRD4 BD2): 50 to 500 nM
- IC50 (BRD4 BD1): 100 to 1000 nM
- IC50 (MV4-11 cells): > 500 nM

SMILES: CC(=O)N1c2ccc(-c3cnn(C4CC4)c3)cc2N(C(=O)OCC2CC2)C[C@@H]1C [Example I-994]
- IC50 (BRD4 BD2): 50 to 500 nM
- IC50 (BRD4 BD1): 100 to 1000 nM
- IC50 (MV4-11 cells): 100 to 500 nM

SMILES: COc1ccc(Cl)cc1OC(=O)N1C[C@H](C)N(C(C)=O)c2ccc(-c3cnn(C4CC4)c3)cc21 [Example I-530]
- IC50 (BRD4 BD2): 50 to 500 nM
- IC50 (BRD4 BD1): 100 to 1000 nM
- IC50 (MV4-11 cells): < 100 nM
